The pIC50 is −log10 of the IC50, conventionally taken in molar units. Usually inhibition stands for the change of the read-out against control, counted positive when it falls. By pKi is commonly meant the negative decadic logarithm of the Ki, by convention in mol/L.

pIC50, pKi: −log10 of the molar value.

From ChEMBL document CHEMBL4765462, “Synthetic Lethality through the Lens of Medicinal Chemistry” (J Med Chem, 2020) come the findings set out here.

Series [1] addresses T1, DNA repair protein RAD52 homolog (Homo sapiens, UniProt P43351).
T1 sequence (P43351 whole entry): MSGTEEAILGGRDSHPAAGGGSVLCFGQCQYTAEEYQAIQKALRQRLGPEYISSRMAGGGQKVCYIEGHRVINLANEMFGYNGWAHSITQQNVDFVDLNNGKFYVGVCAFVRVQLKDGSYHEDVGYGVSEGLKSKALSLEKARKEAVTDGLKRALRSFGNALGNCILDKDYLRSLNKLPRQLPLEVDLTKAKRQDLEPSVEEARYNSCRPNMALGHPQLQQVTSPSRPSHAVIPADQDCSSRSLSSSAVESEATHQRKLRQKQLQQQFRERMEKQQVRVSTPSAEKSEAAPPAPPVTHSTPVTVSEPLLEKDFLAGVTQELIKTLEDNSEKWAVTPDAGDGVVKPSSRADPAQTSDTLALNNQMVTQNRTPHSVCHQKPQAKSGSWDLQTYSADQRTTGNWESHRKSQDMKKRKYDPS
In words: Inhibition of FAM-conjugated ssDNA binding to His-tagged wild type RAD52 (unknown origin) expressed in Rosetta2(DE3)/pLysS cells measured after 30 mins by fluorescence polarization assay. (In general: In fluorescence polarisation assays a small probe gives low polarisation when free and higher when bound to something large.)

Series [2] concerns the target T2, DNA repair protein RAD52 homolog (Homo sapiens) (UniProt P43351).
T2 sequence (whole entry): T1 sequence (P43351 whole entry)
Put plainly: Inhibition of FAM-conjugated ssDNA binding to His-tagged wild type RAD52 (unknown origin) expressed in Rosetta2(DE3)/pLysS cells measured after 30 mins by high-throughput fluorescence polarization assay relative to control. Set-up: concentration or dose not given beside the values.

In series [3] the target is Serine/threonine-protein kinase ATR (Homo sapiens, UniProt Q13535). In words: Inhibition of ATR (unknown origin).
In series [4] the target is Cyclin-dependent kinase 12 (Homo sapiens, UniProt Q9NYV4). In words: Inhibition of CDK12 (unknown origin).
The target of series [5] is Cyclin-dependent kinase 13 (Homo sapiens, UniProt Q14004). Put plainly: Inhibition of CDK13 (unknown origin).
In series [6] the test system is BXPC-3. Put plainly: Growth inhibition of BRCA2-proficient human BxPC3 cells at 10 uM assessed as cell survival incubated for 6 days with replacement of medium for every 3 days by CCK8 assay relative to control. The format is functional. The note with it: BXPC-3, 144 h, time 6 day, read-out: Survival.
Series [7] relates to CAPAN-1. Put plainly: Growth inhibition of BRCA2-deficient human Capan-1 cells at 10 uM incubated for 6 days with replacement of medium for every 3 days by CCK8 assay relative to control. The note with it: CAPAN-1, 144 h, time 6 day, read-out: GI. The format is functional. (Tetrazolium dyes change colour on reduction, which living cells bring about.)
Series [8] addresses Serine-protein kinase ATM (Homo sapiens, UniProt Q13315). Put plainly: Inhibition of human HeLa nuclear extract derived ATM using glutathioneS-transferase-p53N66 as substrate preincubated for 10 mins followed by ATP addition and measured after 1 hr by ELISA. Background: An ELISA detects its analyte on a solid surface through an enzyme-linked reagent.
A short description of series [9]: Inhibition of DNA-PK (unknown origin). Set-up: species or system Homo sapiens.
Series [10] is described as follows: Inhibition of human placental DNA-PK/Ku using EPPLSQEAFADLWKK as substrate in presence of [32P]ATP incubated for 12 mins by scintillation counting method.
Series [11] concerns the target Cyclin-dependent kinase 1 (Homo sapiens, UniProt P06493). Put plainly: Inhibition of CDK1 (unknown origin).
In series [12] the target is Serine/threonine-protein kinase mTOR (Homo sapiens, UniProt P42345). Put plainly: Inhibition of mTOR (unknown origin).
Series [13] has as its target Serine/threonine-protein kinase Sgk1 (Homo sapiens) (UniProt O00141). Put plainly: Inhibition of human SGK expressed in baculovirus expression system at 1 uM relative to control.
Series [14] has as its target Macrophage colony-stimulating factor 1 receptor (Homo sapiens) (UniProt P07333). Put plainly: Inhibition of human CSF1R expressed in baculovirus expression system at 1 uM relative to control.
The target of series [15] is NUAK family SNF1-like kinase 1 (Homo sapiens) (UniProt O60285). Put plainly: Inhibition of human NUAK1 expressed in baculovirus expression system at 1 uM relative to control.
Series [16] has as its target Voltage-gated inwardly rectifying potassium channel KCNH2 (Homo sapiens, UniProt Q12809). In words: Inhibition of human ERG.
For series [17], the target named is T1, DNA repair protein RAD52 homolog. In words: Inhibition of 6His-tagged human RD52 assessed as reduction in RD52 binding to Cy3-dT30-Cy5 ssDNA incubated for 30 mins by FRET assay.
Series [18] deals with SUM149PT. Put plainly: Potentiation of veliparib-induced cytotoxicity against human SUM149PT cells incubated for 7 days by celltiter-Glo assay relative to control. The format is functional. The note with it: time 7 day.
Series [19] relates to MDA-MB-231. Put plainly: Potentiation of veliparib-induced cytotoxicity against human MDA-MB-231 cells incubated for 7 days by celltiter-Glo assay relative to control. The class given is functional. The note with it: time 7 day.
In series [20] the test system is MDA-MB-436. Put plainly: Potentiation of veliparib-induced cytotoxicity against human MDA-MB-436 cells incubated for 7 days by celltiter-Glo assay relative to control. The format is functional. The note with it: time 7 day.
In series [21] the test system is Hs-578T. Put plainly: Potentiation of veliparib-induced cytotoxicity against human Hs578T cells incubated for 7 days by celltiter-Glo assay relative to control. The format is functional. The note with it: time 7 day.
Series [22] relates to BT-549. Put plainly: Potentiation of veliparib-induced cytotoxicity against human BT549 cells incubated for 7 days by celltiter-Glo assay relative to control. The note with it: time 7 day. The format is functional.
Series [23] has as its system BT-20. Put plainly: Potentiation of veliparib-induced cytotoxicity against human BT20 cells incubated for 7 days by celltiter-Glo assay relative to control. The class given is functional. The note with it: time 7 day.
Series [24] deals with HCC1937. Put plainly: Potentiation of veliparib-induced cytotoxicity against human HCC1937 cells incubated for 7 days by celltiter-Glo assay relative to control. The format is functional. The note with it: time 7 day.
Series [25] concerns HCC38. Put plainly: Potentiation of veliparib-induced cytotoxicity against human HCC38 cells incubated for 7 days by celltiter-Glo assay relative to control. The note with it: time 7 day. The format is functional.
Series [26] has as its system MDA-MB-468. Put plainly: Potentiation of veliparib-induced cytotoxicity against human MDA-MB-468 cells incubated for 7 days by celltiter-Glo assay relative to control. The class given is functional. The note with it: time 7 day.
Series [27] has as its target Wee1-like protein kinase (Homo sapiens, UniProt P30291). In words: Displacement of kinase tracer178 from recombinant WEE1 (unknown origin) incubated for 1 hr by lanthascreen TR-FRET assay.
Series [28] deals with U-87 MG. In words: Antimigratory activity against human U87 cells up to 10 microM incubated for 6 hrs by CellTiter-Glo luminescent cell viability assay relative to control. The class given is functional, U-87MG ATCC. The note with it: dose microM <=10.
The nature of series [29]: Antimigratory activity against human U-1242 cells at 3 uM incubated for 1 hr by scratch assay. The format is functional, U-1242MG.

Serine/threonine-protein kinase ATR, sequence (Q13535 whole entry): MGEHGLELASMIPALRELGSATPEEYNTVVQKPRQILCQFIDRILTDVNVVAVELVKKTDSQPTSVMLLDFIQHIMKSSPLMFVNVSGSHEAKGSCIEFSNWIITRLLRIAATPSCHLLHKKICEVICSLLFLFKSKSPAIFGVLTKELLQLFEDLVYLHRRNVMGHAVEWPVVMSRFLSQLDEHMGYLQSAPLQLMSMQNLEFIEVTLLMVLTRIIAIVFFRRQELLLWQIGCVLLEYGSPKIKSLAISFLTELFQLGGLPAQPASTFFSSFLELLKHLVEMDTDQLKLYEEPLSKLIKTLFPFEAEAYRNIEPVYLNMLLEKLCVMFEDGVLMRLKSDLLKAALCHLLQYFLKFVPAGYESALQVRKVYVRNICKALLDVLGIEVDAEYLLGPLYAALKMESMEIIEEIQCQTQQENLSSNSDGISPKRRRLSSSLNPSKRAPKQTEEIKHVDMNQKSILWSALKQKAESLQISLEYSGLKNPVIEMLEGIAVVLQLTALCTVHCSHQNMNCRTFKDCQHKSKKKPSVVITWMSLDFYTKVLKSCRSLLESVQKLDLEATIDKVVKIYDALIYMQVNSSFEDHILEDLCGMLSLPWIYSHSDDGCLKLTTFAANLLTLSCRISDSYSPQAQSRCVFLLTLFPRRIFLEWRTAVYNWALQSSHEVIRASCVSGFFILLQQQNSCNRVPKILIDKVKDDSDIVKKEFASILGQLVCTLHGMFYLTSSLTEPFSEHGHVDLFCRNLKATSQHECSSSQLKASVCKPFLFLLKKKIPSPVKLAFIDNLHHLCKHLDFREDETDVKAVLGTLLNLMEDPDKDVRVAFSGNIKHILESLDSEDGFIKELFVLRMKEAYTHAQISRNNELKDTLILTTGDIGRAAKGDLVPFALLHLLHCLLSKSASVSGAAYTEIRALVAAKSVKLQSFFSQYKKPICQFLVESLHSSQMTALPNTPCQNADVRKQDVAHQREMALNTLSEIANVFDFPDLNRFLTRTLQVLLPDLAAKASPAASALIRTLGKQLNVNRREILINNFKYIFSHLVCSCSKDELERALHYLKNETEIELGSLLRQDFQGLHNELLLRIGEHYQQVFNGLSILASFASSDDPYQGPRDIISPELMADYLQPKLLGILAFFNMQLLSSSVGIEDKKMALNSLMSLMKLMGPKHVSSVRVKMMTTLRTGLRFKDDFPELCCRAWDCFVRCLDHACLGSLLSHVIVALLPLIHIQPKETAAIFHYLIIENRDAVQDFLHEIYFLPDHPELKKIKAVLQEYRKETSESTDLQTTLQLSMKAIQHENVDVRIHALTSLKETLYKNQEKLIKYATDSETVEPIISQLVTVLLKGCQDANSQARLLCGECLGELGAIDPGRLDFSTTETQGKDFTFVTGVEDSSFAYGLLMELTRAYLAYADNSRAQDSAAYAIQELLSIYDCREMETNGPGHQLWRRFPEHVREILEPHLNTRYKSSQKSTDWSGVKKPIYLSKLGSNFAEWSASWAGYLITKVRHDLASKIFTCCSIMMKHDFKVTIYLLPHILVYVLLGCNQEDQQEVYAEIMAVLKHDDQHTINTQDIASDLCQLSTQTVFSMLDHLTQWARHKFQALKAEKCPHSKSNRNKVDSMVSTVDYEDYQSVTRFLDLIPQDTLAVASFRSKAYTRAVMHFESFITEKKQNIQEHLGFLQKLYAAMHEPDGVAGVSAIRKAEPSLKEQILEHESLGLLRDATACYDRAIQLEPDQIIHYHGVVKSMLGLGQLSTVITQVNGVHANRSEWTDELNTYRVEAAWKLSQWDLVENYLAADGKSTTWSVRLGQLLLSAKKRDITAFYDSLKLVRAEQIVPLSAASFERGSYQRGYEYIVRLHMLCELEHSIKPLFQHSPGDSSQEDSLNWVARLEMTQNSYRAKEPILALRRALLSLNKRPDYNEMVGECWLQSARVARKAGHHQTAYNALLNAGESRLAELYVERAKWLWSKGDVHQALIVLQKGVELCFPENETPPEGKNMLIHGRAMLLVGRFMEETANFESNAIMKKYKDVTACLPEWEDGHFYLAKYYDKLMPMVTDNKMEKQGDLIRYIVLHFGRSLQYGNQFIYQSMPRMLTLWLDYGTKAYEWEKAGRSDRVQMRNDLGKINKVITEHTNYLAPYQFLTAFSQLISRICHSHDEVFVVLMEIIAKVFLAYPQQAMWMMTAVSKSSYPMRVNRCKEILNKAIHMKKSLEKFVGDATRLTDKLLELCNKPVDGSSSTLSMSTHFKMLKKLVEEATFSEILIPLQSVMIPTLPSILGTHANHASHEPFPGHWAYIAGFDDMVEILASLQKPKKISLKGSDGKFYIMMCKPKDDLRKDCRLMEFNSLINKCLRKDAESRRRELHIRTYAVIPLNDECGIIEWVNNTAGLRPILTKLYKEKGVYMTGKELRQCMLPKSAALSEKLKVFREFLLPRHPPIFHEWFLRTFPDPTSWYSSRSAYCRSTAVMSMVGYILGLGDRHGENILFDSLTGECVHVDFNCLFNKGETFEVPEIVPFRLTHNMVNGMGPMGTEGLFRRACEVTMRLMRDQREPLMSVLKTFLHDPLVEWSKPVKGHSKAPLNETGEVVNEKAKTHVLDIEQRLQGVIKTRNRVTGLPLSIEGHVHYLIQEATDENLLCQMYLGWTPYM
Serine/threonine-protein kinase Sgk1 (Homo sapiens), sequence (O00141 whole entry): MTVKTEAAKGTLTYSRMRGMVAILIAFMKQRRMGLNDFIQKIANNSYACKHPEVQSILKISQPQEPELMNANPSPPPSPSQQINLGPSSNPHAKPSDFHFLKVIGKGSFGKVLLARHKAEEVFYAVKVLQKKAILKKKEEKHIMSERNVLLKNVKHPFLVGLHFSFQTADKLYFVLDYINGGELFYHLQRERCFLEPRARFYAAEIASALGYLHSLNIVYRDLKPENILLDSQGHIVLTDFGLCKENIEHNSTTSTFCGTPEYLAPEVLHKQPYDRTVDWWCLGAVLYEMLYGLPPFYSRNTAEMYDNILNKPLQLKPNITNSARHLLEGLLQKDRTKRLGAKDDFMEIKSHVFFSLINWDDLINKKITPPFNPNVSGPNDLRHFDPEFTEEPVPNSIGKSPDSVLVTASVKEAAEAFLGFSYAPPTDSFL
Wee1-like protein kinase, sequence (P30291 whole entry): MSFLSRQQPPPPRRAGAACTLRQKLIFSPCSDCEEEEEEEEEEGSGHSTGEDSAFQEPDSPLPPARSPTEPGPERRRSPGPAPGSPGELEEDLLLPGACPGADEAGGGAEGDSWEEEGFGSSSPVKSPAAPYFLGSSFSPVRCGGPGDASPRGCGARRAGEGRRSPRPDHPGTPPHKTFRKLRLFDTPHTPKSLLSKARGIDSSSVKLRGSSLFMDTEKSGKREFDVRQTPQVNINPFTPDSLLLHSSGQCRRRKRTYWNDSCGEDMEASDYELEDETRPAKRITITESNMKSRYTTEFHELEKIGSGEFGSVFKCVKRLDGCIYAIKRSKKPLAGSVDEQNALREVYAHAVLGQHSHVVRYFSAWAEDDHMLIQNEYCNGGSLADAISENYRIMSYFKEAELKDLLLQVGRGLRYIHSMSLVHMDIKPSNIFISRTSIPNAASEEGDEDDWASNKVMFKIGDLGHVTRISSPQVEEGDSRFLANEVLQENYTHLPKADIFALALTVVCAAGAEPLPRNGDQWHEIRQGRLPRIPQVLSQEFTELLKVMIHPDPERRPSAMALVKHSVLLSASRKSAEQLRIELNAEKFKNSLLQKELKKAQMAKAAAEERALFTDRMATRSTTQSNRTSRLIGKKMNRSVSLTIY
Voltage-gated inwardly rectifying potassium channel KCNH2, sequence (Q12809 whole entry): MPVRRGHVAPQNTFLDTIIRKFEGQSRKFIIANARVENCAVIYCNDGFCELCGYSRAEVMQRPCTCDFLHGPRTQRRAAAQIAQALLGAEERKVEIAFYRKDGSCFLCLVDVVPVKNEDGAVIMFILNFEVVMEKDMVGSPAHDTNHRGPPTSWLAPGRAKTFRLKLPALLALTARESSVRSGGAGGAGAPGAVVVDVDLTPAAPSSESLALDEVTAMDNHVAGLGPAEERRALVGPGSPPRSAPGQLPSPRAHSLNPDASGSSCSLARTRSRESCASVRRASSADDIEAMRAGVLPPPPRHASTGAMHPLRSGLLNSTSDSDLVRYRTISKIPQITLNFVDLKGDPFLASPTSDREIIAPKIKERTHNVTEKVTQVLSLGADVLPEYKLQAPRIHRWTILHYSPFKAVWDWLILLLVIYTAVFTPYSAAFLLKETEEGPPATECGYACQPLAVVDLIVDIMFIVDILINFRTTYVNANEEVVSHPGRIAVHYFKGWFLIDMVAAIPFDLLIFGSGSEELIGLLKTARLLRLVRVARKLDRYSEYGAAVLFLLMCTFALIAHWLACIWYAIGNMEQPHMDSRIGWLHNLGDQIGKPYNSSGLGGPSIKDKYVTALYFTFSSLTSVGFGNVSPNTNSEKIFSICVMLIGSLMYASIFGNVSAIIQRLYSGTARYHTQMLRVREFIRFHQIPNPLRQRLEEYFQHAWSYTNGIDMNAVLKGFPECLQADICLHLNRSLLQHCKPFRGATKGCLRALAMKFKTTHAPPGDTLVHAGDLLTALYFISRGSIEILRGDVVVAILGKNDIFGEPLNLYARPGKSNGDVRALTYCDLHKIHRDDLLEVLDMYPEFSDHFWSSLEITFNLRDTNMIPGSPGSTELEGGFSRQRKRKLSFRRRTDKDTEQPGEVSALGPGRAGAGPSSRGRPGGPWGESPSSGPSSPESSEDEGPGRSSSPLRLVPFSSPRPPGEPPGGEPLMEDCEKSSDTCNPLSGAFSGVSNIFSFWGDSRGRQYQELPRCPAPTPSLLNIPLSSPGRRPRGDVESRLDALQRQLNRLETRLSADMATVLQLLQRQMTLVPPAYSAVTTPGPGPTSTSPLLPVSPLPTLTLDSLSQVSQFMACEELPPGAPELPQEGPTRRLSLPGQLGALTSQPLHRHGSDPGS

In the case of `O=C(O)C1=CC(=C(c2ccc(O)c(C(=O)O)c2)c2ccc(O)c(C(=O)O)c2)C=CC1=O` [AURINTRICARBOXYLIC ACID], in series [1], the pIC50 is above 5.30. The inhibition in [2] was above 60%.

The compound `Nc1nn2cc(F)cnc2c1C(=O)Nc1cncc(F)c1N1CCC(C(=O)N2CCN(C3COC3)CC2)CC1` [M4344] showed a negative-log Ki (pKi) in [3] of at least 9.82.

As to `O=C1C=CC(=NOS(=O)(=O)c2cc(Cl)ccc2Cl)C=C1`, in series [1], the pIC50 is above 5.30. Besides, the inhibition in series [2] was above 60%.

In the case of `CN(C)C/C=C/C(=O)Nc1ccc(C(=O)Nc2cccc(Nc3ncc(Cl)c(-c4c[nH]c5ccccc45)n3)c2)cc1`, the negative logarithm of the IC50 (pIC50) in [4] is 6.06; in series [5] it was 6.65.

With `Cn1cccc1C=CC(=O)O`, the pIC50 in [1] is above 5.30. The inhibition in series [2] was above 60%.

For the compound `Cn1cccc1C=C1C(=O)NC(=S)NC1=O`, the negative-log IC50 (pIC50) in series [1] is above 5.30. The same compound came in with an inhibition in series [2] above 60%.

Consider `Cc1ccc2[nH]c(CCc3cccc(NC(=O)C4CCCN(S(=O)(=O)N5CCCC5)C4)c3)nc2c1` (stereo not given), for which the viability at 10 µM in series [6] was above 90%. The inhibition of growth at 10 µM in [7] came to 50%.

With `O=c1cc(-c2cccc3c2Sc2ccccc2S3)oc(N2CCCCC2)c1`, in series [8], the negative logarithm of the IC50 (pIC50) was 5.53.

In series [1], `CC(C)Oc1c(-c2ccco2)c(=O)c1=O` had a pIC50 above 5.30. In [2], this compound returned an inhibition above 60%.

`COc1ccc([C@@H](O)c2cc(-c3ncnc4cc(N5CCOCC5)ccc34)c(F)cc2Cl)nn1` [NEDISERTIB]: the pIC50 in series [9] is at least 8.52.

In series [1], `O=C(O)c1ccc(/C=N/c2nc[nH]n2)cc1` gave a pIC50 above 5.30. In [2], this compound returned an inhibition above 60%.

In the case of `Cc1cc2ncnn2cc1Nc1ncc2c(n1)n(C1CCOCC1)c(=O)n2C` [AZD-7648], the pIC50 in series [9] is 9.22.

`NC(Cc1cc(O)c(O)cc1O)C(=O)O` (stereo not given) had a negative-log IC50 (pIC50) in series [1] of 5.96. The compound also gave an inhibition in series [2] above 60%.

As to `CCc1[nH]c(/C=C2\C(=O)Nc3ccc(S(=O)(=O)Nc4ccccc4)cc32)c(CC)c1CCC(=O)O`, in series [10], the pIC50 is 6.89.

In series [11], `CCN(CC)CCOc1ccc(Nc2ncc3cc(-c4c(Cl)cccc4Cl)c(=O)n(C)c3n2)cc1` [PD-0166285] showed a negative logarithm of the IC50 (pIC50) above 7.00.

As to `CC(C)n1c(=O)n(C)c2cnc3cc(F)c(-c4ccc(OCCCN5CCCCC5)nc4)cc3c21` [AZD-1390], the pIC50 in series [12] is at most 6.00; in [3], at most 6.00; in series [9] it was at most 6.00; in series [16] it was 5.18. For the same compound, the inhibition in series [13], in series [14] and in series [15] was above 50% throughout.

As to `Oc1ccc(N=Cc2ccc[nH]2)cc1N=Cc1ccc[nH]1`, in series [1], the pIC50 was above 5.30. In series [2], the inhibition is above 60%.

On to `O=C(O[C@@H]1O[C@@H]2COC(=O)c3cc(O)c(O)c(O)c3-c3c(cc(O)c(O)c3O)C(=O)O[C@H]2[C@H](O)[C@H]1O)c1cc(O)c(O)c(O)c1` [STRICTININ], for which the pIC50 in [17] was 5.82.

With `CCc1cnn2c(NCc3ccc[n+]([O-])c3)cc(N3CCCC[C@H]3CCO)nc12` [DINACICLIB], the “fold change (FC)” value in series [18], in [19], in series [20], in series [21], in series [22] and in [23] was 2.5 each time. Also, the “fold change (FC)” value in series [24], in series [25] and in series [26] was 2.5 each time.

For the compound `C=CCn1c(=O)c2cnc(Nc3ccc(N4CCN(C(=O)OC)CC4)cc3)nc2n1-c1cccc(C(C)(C)O)n1`, in [27], the pIC50 is 8.55.

As to `C[C@@H]1CN(CC(=O)Nc2ccc3c(c2)Cc2cccc(-c4cc(=O)cc(N5CCOCC5)o4)c2S3)C[C@H](C)O1`, the Activity in series [28] is above 70%; in series [29], above 50%.

As for `Cc1cc2c(C(C)C)c(O)c(O)c(C=O)c2c(O)c1-c1c(C)cc2c(C(C)C)c(O)c(O)c(C=O)c2c1O` [GOSSYPOL], the pIC50 in series [1] was above 5.30. In addition, the inhibition in series [2] was above 60%.

Regarding `O=C1NC(=S)NC(=O)C1=C/C=C/c1ccco1`, the pIC50 in series [1] is above 5.30. Also, the inhibition in series [2] was above 60%.
